Values of other authors in US6392068B1, “Carborane containing cholesterol, a new type of molecule for targeted boron drug delivery” (The University of Georgia Research Foundation, Inc., priority 1999, dated 2002).

Test system: tumor cell
Details: in-vitro; background statement

Na2B12H11 SH [BSH]
retention in the tumor cell: does not stay in the tumor cell but is easily washed out
